Experimental data: patent US20250230193A1, “CYCLIC COMPOUND HAVING SELECTIVE KRAS INHIBITORY EFFECT ON HRAS AND NRAS” (CHUGAI SEIYAKU KABUSHIKI KAISHA, priority 2022, published 2025)
*1 amine or outer side, *2 acyl side, *3 side chain or, on linkers, in order; H or OH if unused. Where a SMILES comes first, the peptide text is derived from it. Bridges are numbered along the chain shown (N, C = ends). [ ]: non-standard residue; d: D form. The star is where a group is joined. hPhe(3-Cl-4-CF3) = N[C@@H](CCc1ccc(C(F)(F)F)c(Cl)c1)C(=O)O; NPrPhe(4-CF3) = CCCN[C@@H](Cc1ccc(C(F)(F)F)cc1)C(=O)O; X19 = CCCCN([C@@H](Cc1ccc(C)cc1)C(=O)[*:2])[*:1]; NMeGly(cPent) = CN[C@H](C(=O)O)C1CCCC1; Hyp = O=C(O)[C@@H]1C[C@@H](O)CN1; NMeD = CN[C@@H](CC(=O)O)C(=O)O; NMeL = CN[C@@H](CC(C)C)C(=O)O; Morpholide = C1CN(*)CCO1; Ac5c = NC1(C(=O)O)CCCC1; Aze = O=C(O)[C@@H]1CCN1; Ac4c = NC1(C(=O)O)CCC1; Sar = CNCC(=O)O

Key:
[1] = biological target: GDP-bound HRAS wild-type protein (Homo sapiens, UniProt P01112); test: Binding to HRAS by surface plasmon resonance (SPR), Single Cycle Kinetics; conditions: SPR
[2] = biological target: GDP-bound NRAS wild-type protein (Homo sapiens, UniProt P01111); test: Binding to NRAS by surface plasmon resonance (SPR), Single Cycle Kinetics; conditions: SPR
GDP-bound NRAS wild-type protein, sequence (P01111 whole entry): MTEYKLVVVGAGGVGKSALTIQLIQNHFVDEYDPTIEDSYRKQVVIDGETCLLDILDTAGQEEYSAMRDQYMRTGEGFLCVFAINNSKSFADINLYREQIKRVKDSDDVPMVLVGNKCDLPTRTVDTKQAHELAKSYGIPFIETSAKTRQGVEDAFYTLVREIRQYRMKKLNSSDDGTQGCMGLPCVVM

GDP-bound HRAS wild-type protein, sequence (P01112 whole entry): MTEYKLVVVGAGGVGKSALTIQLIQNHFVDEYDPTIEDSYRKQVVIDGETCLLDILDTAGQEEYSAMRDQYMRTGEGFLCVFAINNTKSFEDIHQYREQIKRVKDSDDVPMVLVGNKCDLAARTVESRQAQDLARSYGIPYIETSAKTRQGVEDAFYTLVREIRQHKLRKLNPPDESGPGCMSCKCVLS

CCCCN1C(=O)CN(C)C(=O)CN(C)C(=O)[C@H]([C@@H](C)CC)NC(=O)[C@H](CC(C)C)N(C)C(=O)C[C@@H](C(=O)N2CCOCC2)N(C)C(=O)[C@H](C2CCCC2)N(C)C(=O)C2(CCCC2)NC(=O)[C@@H]2CCCN2C(=O)[C@H](CCc2ccc(C(F)(F)F)c(Cl)c2)NC(=O)CN(C)C(=O)[C@@H]1Cc1ccc(C)cc1 [PP0062] ([NMeL]I[Sar][Sar][X19][Sar][hPhe(3-Cl-4-CF3)]P[Ac5c][NMeGly(cPent)][NMeD]-Morpholide; lactam N-11)
HRAS/KRAS (ratio of KD for GDP-bound HRAS wild-type to KD for KRAS) [1]: C (A compound having a KD ratio of 0.1 or more and less than 3 is denoted as C) | NRAS/KRAS (ratio of KD for GDP-bound NRAS wild-type to KD for KRAS) [2]: C (A compound having a KD ratio of 0.1 or more and less than 3 is denoted as C)

CCO[C@@H]1C[C@H]2C(=O)NC3(CCC3)C(=O)N(C)[C@@H](C3CCCC3)C(=O)N(C)[C@H](C(=O)N(CC)CC)CC(=O)N(C)[C@@H](CC(F)F)C(=O)N[C@@H]([C@@H](C)CC)C(=O)N(C)CC(=O)N(C)[C@H]3C/C=C\CCN(C3=O)[C@@H](Cc3ccc(C(F)(F)F)cc3)C(=O)N(C)CC(=O)N[C@@H](CCc3cc(F)c(C(F)(F)F)c(F)c3)C(=O)N2C1 [PP1309]
HRAS/KRAS (ratio of KD value for GDP-bound HRAS wild-type protein to KD value for KRAS) ([1]; KD ratio class): A (a compound having 10 or more and less than 20 is denoted as A) | NRAS/KRAS (ratio of KD value for GDP-bound NRAS wild-type protein to KD value for KRAS) ([2]; KD ratio class): A (a compound having 10 or more and less than 20 is denoted as A)

CCCN1C(=O)CN(C)C(=O)[C@@H]2CCN2C(=O)[C@H]([C@@H](C)CC)NC(=O)[C@H](CC(C)C)N(C)C(=O)C[C@@H](C(=O)N2CCOCC2)N(C)C(=O)[C@H](C2CCCC2)N(C)C(=O)C2(CCC2)NC(=O)[C@@H]2C[C@@H](OCC)CN2C(=O)[C@H](CCc2ccc(C(F)(F)F)c(Cl)c2)NC(=O)CN(C)C(=O)[C@@H]1Cc1ccc(C(F)(F)F)cc1 [PP0405] ([NMeL]I[Aze][Sar][NPrPhe(4-CF3)][Sar][hPhe(3-Cl-4-CF3)][Hyp](Et)[Ac4c][NMeGly(cPent)][NMeD]-Morpholide; lactam N-11)
HRAS/KRAS (ratio of KD for GDP-bound HRAS wild-type to KD for KRAS) [1]: C (A compound having a KD ratio of 0.1 or more and less than 3 is denoted as C) | NRAS/KRAS (ratio of KD for GDP-bound NRAS wild-type to KD for KRAS) [2]: B (a compound having 3 or more and less than 10 is denoted as B)

CC[C@H](C)[C@@H]1NC(=O)[C@H](CC(F)F)N(C)C(=O)C[C@@H](C(=O)N(C)C)N(C)C(=O)[C@H](C2CCCC2)N(C)C(=O)C2(CC(C)(C)C2)NC(=O)[C@@H]2C[C@H](C)CN2C(=O)[C@H](CCc2cc(F)c(C(F)(F)F)c(F)c2)NC(=O)CN(C)C(=O)[C@H](Cc2ccc(C(F)(F)F)cc2)N2CC/C=C\C[C@@H](C2=O)N(C)C(=O)CN(C)C1=O [PP1658]
HRAS/KRAS (ratio of KD value for HRAS to KD value for KRAS) ([1]; KD ratio, GDP-bound HRAS wild-type vs GDP-bound KRAS wild-type): A (a compound having 10 or more and less than 20 is denoted as A) | NRAS/KRAS (ratio of KD value for NRAS to KD value for KRAS) ([2]; KD ratio, GDP-bound NRAS wild-type vs GDP-bound KRAS wild-type): A (a compound having 10 or more and less than 20 is denoted as A)

CC[C@H](C)[C@@H]1NC(=O)[C@H](CC(C)C)N(C)C(=O)C[C@@H](C(=O)N2CCOCC2)N(C)C(=O)[C@H](C2CCCC2)N(C)C(=O)C2(CCCC2)NC(=O)[C@@H]2CCCN2C(=O)[C@H](CCc2ccc(C(F)(F)F)c(Cl)c2)NC(=O)CN(C)C(=O)[C@H](Cc2ccc(OC)cc2)N2CC=CC[C@@H](C2=O)N(C)C(=O)CN(C)C1=O [PP0535]
HRAS/KRAS (ratio of KD value with respect to GDP-bound HRAS wild-type protein to KD value with respect to KRAS) [1]: B (a compound having 3 or more and less than 10 is denoted as B) | NRAS/KRAS (ratio of KD value with respect to GDP-bound NRAS wild-type protein to KD value with respect to KRAS) [2]: C (A compound having a KD ratio of 0.1 or more and less than 3 is denoted as C)

CCOC[C@H]1C(=O)N[C@@H]([C@@H](C)CC)C(=O)N(C2CC2)CC(=O)N(C)[C@H]2C/C=C\CCN(C2=O)[C@@H](CC2CCC(F)(F)CC2)C(=O)N(C)CC(=O)N[C@@H](CCc2ccc(C(F)(F)F)c(OC)c2)C(=O)N2C[C@H](OCC)C[C@H]2C(=O)N(C)C2(CCC2)C(=O)N(C)[C@@H](C(CC)CC)C(=O)N(C)[C@H](C(=O)N(C)C)CC(=O)N1C [PP2351]
HRAS/KRAS (ratio of KD value with respect to HRAS to KD value with respect to KRAS) ([1]; GDP-bound HRAS wild-type vs GDP-bound KRAS wild-type): A (a compound having 10 or more and less than 20 is denoted as A) | NRAS/KRAS (ratio of KD value with respect to NRAS to KD value with respect to KRAS) ([2]; GDP-bound NRAS wild-type vs GDP-bound KRAS wild-type): A (a compound having 10 or more and less than 20 is denoted as A)

CCC[C@H]1C(=O)N[C@@H]([C@@H](C)CC)C(=O)N2CCC[C@H]2C(=O)N(C)[C@H]2C/C=C\CCN(C2=O)[C@@H](Cc2ccc(C(F)(F)F)cc2)C(=O)N(C)CC(=O)N[C@@H](CCc2cc(F)c(C(F)(F)F)c(F)c2)C(=O)N2C[C@H](OCC)C[C@H]2C(=O)N(C)C2(CCC2)C(=O)N(C)[C@@H](C2CCCC2)C(=O)N(C)[C@H](C(=O)N2CCCCC2)CC(=O)N1C [PP3114]
HRAS/KRAS (ratio of KD value with respect to GDP-bound HRAS wild-type protein to KD value with respect to KRAS) ([1]; GDP-bound wild-type proteins): A (a compound having 10 or more and less than 20 is denoted as A) | NRAS/KRAS (ratio of KD value with respect to GDP-bound NRAS wild-type protein to KD value with respect to KRAS) ([2]; GDP-bound wild-type proteins): AA (a compound having 20 or more is denoted as AA)
